Data taken from PubChem BioAssay AID1963983 (Molecular Pharmacology Branch, DTP, NCI, 2024).
pIC50: −log10 of the molar value.

System: 186277-243-T-J2-PDC multi-cell spheroid viability
Experiment: Anticancer human tumor 186277-243-T-J2-PDC patient-derived colon adenocarcinoma cell line growth inhibition [PI3K]
Settings: for pIC50: curve of first compound; for viability, T/C: stronger effect = lower value
Outline: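 Tumor cells grown as multi-cell spheroids with HUVEC endothelial cells and MSC fibroblast-like stroma were treated with targeted agents combined with inavolisib, alpelisib, duvelisib or copanlisib. Doses fell in half-log steps from near clinical Cmax, else from 10 microM. Viability was measured.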

[1] = second compound 0.00316 µM, first compound 0.0316 µM
[2] = second compound 0.00316 µM, first compound 0.1 µM
[3] = second compound 0.01 µM, first compound 0.0316 µM
[4] = second compound 0.01 µM, first compound 0.1 µM
[5] = second compound 0.0316 µM, first compound 0.0316 µM
[6] = second compound 0.0316 µM, first compound 0.1 µM
[7] = second compound 0.1 µM, first compound 0.0316 µM
[8] = second compound 0.1 µM, first compound 0.1 µM
[9] = second compound 0.316 µM, first compound 0.0316 µM
[10] = second compound 0.316 µM, first compound 0.1 µM
[11] = second compound 1 µM, first compound 0.0316 µM
[12] = second compound 1 µM, first compound 0.1 µM
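Also: spheroids exposed to compounds for seven days before viability reading.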
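For viability, T/C in this document: 100% = DMSO vehicle control viability.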

CC(C)n1nc(-c2ccc3oc(N)nc3c2)c2c(N)ncnc21 + COc1c(OCCCN2CCOCC2)ccc2c3n(c(=NC(=O)c4cnc(N)nc4)nc12)CCN3
pIC50 (second compound 0.00316 µM): 7.30 | pIC50 (second compound 0.01 µM): 7.37 | pIC50 (second compound 0.0316 µM): 8.27 | pIC50 (second compound 0.1 µM): > 9.50 | pIC50 (second compound 0.316 µM): > 9.50 | pIC50 (second compound 1 µM): > 9.50 | viability, T/C (second compound 0.00316 µM, first compound 0.000316 µM): 108% | viability, T/C (second compound 0.00316 µM, first compound 0.001 µM): 81.1% | viability, T/C (second compound 0.00316 µM, first compound 0.00316 µM): 97.7% | viability, T/C (second compound 0.00316 µM, first compound 0.01 µM): 82.9% | viability, T/C [1]: 70.8% | viability, T/C [2]: 21.2% | viability, T/C (second compound 0.01 µM, first compound 0.000316 µM): 97.5% | viability, T/C (second compound 0.01 µM, first compound 0.001 µM): 103% | viability, T/C (second compound 0.01 µM, first compound 0.00316 µM): 86.5% | viability, T/C (second compound 0.01 µM, first compound 0.01 µM): 89.8% | viability, T/C [3]: 61% | viability, T/C [4]: 14.7% | viability, T/C (second compound 0.0316 µM, first compound 0.000316 µM): 74.2% | viability, T/C (second compound 0.0316 µM, first compound 0.001 µM): 70.6% | viability, T/C (second compound 0.0316 µM, first compound 0.00316 µM): 59.5% | viability, T/C (second compound 0.0316 µM, first compound 0.01 µM): 39% | viability, T/C [5]: 17.1% | viability, T/C [6]: 6.6% | viability, T/C (second compound 0.1 µM, first compound 0.000316 µM): 17% | viability, T/C (second compound 0.1 µM, first compound 0.001 µM): 17.5% | viability, T/C (second compound 0.1 µM, first compound 0.00316 µM): 14.3% | viability, T/C (second compound 0.1 µM, first compound 0.01 µM): 9.3% | viability, T/C [7]: 8.21% | viability, T/C [8]: 3.59% | viability, T/C (second compound 0.316 µM, first compound 0.000316 µM): 4.14% | viability, T/C (second compound 0.316 µM, first compound 0.001 µM): 7.06% | viability, T/C (second compound 0.316 µM, first compound 0.00316 µM): 4.26% | viability, T/C (second compound 0.316 µM, first compound 0.01 µM): 4.69% | viability, T/C [9]: 2.78% | viability, T/C [10]: 2.4% | viability, T/C (second compound 1 µM, first compound 0.000316 µM): 3.07% | viability, T/C (second compound 1 µM, first compound 0.001 µM): 1.73% | viability, T/C (second compound 1 µM, first compound 0.00316 µM): 3% | viability, T/C (second compound 1 µM, first compound 0.01 µM): 1.5% | viability, T/C [11]: 3.24% | viability, T/C [12]: 1.04%

CC1(C)CCC(CN2CCN(c3ccc(C(=O)NS(=O)(=O)c4ccc(NCC5CCOCC5)c([N+](=O)[O-])c4)c(Oc4cnc5[nH]ccc5c4)c3)CC2)=C(c2ccc(Cl)cc2)C1 + COc1c(OCCCN2CCOCC2)ccc2c3n(c(=NC(=O)c4cnc(N)nc4)nc12)CCN3
pIC50 (second compound 0.00316 µM): < 5.00 | pIC50 (second compound 0.01 µM): < 5.00 | pIC50 (second compound 0.0316 µM): < 5.00 | pIC50 (second compound 0.1 µM): > 7.50 | pIC50 (second compound 0.316 µM): > 7.50 | pIC50 (second compound 1 µM): > 7.50 | viability, T/C [1]: 110% | viability, T/C [2]: 96.2% | viability, T/C (second compound 0.00316 µM, first compound 0.316 µM): 110% | viability, T/C (second compound 0.00316 µM, first compound 1 µM): 108% | viability, T/C (second compound 0.00316 µM, first compound 3.16 µM): 93% | viability, T/C (second compound 0.00316 µM, first compound 10 µM): 115% | viability, T/C [3]: 99.1% | viability, T/C [4]: 105% | viability, T/C (second compound 0.01 µM, first compound 0.316 µM): 96.5% | viability, T/C (second compound 0.01 µM, first compound 1 µM): 109% | viability, T/C (second compound 0.01 µM, first compound 3.16 µM): 82.6% | viability, T/C (second compound 0.01 µM, first compound 10 µM): 94% | viability, T/C [5]: 80.8% | viability, T/C [6]: 89.3% | viability, T/C (second compound 0.0316 µM, first compound 0.316 µM): 80.5% | viability, T/C (second compound 0.0316 µM, first compound 1 µM): 78.5% | viability, T/C (second compound 0.0316 µM, first compound 3.16 µM): 76.1% | viability, T/C (second compound 0.0316 µM, first compound 10 µM): 71.2% | viability, T/C [7]: 26.6% | viability, T/C [8]: 20.3% | viability, T/C (second compound 0.1 µM, first compound 0.316 µM): 21.3% | viability, T/C (second compound 0.1 µM, first compound 1 µM): 21.3% | viability, T/C (second compound 0.1 µM, first compound 3.16 µM): 23.9% | viability, T/C (second compound 0.1 µM, first compound 10 µM): 16.9% | viability, T/C [9]: 5.48% | viability, T/C [10]: 11.5% | viability, T/C (second compound 0.316 µM, first compound 0.316 µM): 4.51% | viability, T/C (second compound 0.316 µM, first compound 1 µM): 6.03% | viability, T/C (second compound 0.316 µM, first compound 3.16 µM): 6.17% | viability, T/C (second compound 0.316 µM, first compound 10 µM): 4.39% | viability, T/C [11]: 2.94% | viability, T/C [12]: 4.42% | viability, T/C (second compound 1 µM, first compound 0.316 µM): 3.06% | viability, T/C (second compound 1 µM, first compound 1 µM): 2.7% | viability, T/C (second compound 1 µM, first compound 3.16 µM): 5.01% | viability, T/C (second compound 1 µM, first compound 10 µM): 2.15%
